Reference: US6015805A, “17β-nitro-11β-arylisteroids and their derivatives having agonist or antagonist hormonal properties” (Research Triangle Research North Carolina, priority 1999, dated 2000)

Columns and labels:
[1] = system: human T-47D breast cells; experiment: T47D cell proliferation, antagonist format (inhibition of R5020-mediated [^3 H]-thymidine incorporation); assay type: cell-based; conditions: for EC50: Homo sapiens, T47D, concentration which inhibits 0.15 nM R5020-mediated proliferation by 50%; for Cell Proliferation, Antagonist Format % inhibition: maximum % inhibition, 0.15 nM R5020
Method: (§1) Human T-47D breast cells grown in nutrient media were incubated with the standard progestin R5020 alone or with R5020 plus test compound and then assessed by standard procedures for proliferation using incorporation of [^3 H]-thymidine as the measurement. […] The maximum % inhibition (a measure of the efficacy of the compounds) is also given. In the agonist format of this assay the compounds were tested at concentrations ranging from 0.01 to 10 nM and the maximum % stimulation at any dose is listed in Table 3.

[2] = system: rabbits; experiment: Anti-McGinty assay (antiprogestational activity, test compound plus progesterone); assay type: in vivo, rabbit; design: key to McPhail Index, Anti-McGinty Assay, Standard / McPhail Index, Anti-McGinty Assay (Antagonist): McPhail scoring scale for progestational endometrial response; conditions: for McPhail Index, Anti-McGinty Assay (Antagonist): plus progesterone
Method: (§2) Progestational activity and antiprogestational activity were determined in rabbits by means of the McGinty test (test compound alone, procedure of McGinty et al., Endocrinology, 24: 829-832 (1939)) or anti-McGinty test (test compound plus progesterone, procedure of Tamara et al., Jpn. J. Fertil Steril 24: 48-81 (1979)). Results were scored according to McPhail (McPhail, J Physiol., 83: 146 (1934)). These are standard procedures known to those skilled in the art. The results of these assays are shown in Tables 4 (agonist activity) and 5 (antagonist activity). […] Physiol, 83: 146 (1934)).

[3] = system: human T-47D breast cells; experiment: T47D cell proliferation, agonist format; assay type: cell-based; conditions: maximum % stimulation at any dose, 0.01 to 10 nM
Method: as §1

[4] = target: T1, glucocorticoid receptor (rGR) (Oryctolagus cuniculus, UniProt P59667); experiment: Receptor binding (rabbit), glucocorticoid receptor; conditions: relative to dexamethasone = 100
T1 construct: the source of the glucocorticoid receptor was the thymus of the estrogen-primed immature female rabbit; from tissue; host or cells: thymus of the estrogen-primed immature female rabbit
T1 sequence (P59667 1-772): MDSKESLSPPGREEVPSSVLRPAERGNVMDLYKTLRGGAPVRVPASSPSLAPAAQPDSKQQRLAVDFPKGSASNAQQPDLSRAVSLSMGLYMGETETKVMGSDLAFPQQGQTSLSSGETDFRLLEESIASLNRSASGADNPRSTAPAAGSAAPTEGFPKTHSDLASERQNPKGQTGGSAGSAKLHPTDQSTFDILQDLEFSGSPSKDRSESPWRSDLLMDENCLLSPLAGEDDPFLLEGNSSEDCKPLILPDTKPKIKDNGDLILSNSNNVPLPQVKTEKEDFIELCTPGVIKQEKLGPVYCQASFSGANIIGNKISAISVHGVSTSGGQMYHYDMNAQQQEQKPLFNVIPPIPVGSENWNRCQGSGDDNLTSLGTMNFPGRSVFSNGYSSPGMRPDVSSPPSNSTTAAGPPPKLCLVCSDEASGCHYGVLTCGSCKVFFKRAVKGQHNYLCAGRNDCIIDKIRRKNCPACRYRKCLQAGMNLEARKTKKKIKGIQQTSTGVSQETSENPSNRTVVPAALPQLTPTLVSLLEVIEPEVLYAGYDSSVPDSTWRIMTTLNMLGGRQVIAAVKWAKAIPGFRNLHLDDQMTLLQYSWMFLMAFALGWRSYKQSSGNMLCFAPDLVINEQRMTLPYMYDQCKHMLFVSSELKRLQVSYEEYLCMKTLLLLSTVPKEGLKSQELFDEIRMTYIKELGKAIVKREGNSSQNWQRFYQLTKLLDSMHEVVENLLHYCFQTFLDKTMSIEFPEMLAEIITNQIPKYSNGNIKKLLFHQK
Method: The affinity of the compounds for hormone receptors for progestins and glucocorticoids from rabbits was determined by standard procedures similar to those that have been described in C. E. Cook, et al., Human Reproduction, Volume 9, supplement 1, pp. 32-39 (1994). However, the source of the glucocorticoid receptor was the thymus of the estrogen-primed immature female rabbit. The affinity of the compounds for the human progesterone hormone receptor was determined by standard procedures similar to those that have been described in Horwitz, et al., Cell, 28: 633-42 (1982) and Mockus, et al., Endocrinology, 110: 1564-71 (1982). The receptor was obtained in cytosol from human T-47D breast cells and [^3 H]-R5020 was used as the radioligand. T47D cells (1 billion/mL) were homogenized in TEDG buffer (10 mM Tris, 1.5 mM EDTA, 1 mM dithiothreitol, 1 mM sodium molybdate, and 10% glycerol) using a Dounce pestle A, and the homogenate was centrifuged at 34,000×g for 1 hour. The supernatant was stored at -80° C. An aliquot of receptor preparation was combined with test compound, 0.4 nM [^3 H]-R5020, and TEDG buffer to a final volume of 150 ,μL and incubated for 4 hours at 4° C. in microtiter plates. At the end of incubation 40 μL 40% polyethylene glycol and 15 μL 1% human gamma globulin was added to the incubate and the contents of each well were harvested onto double thick B filter mats (Wallac LKB) using a TomTec harvester. A film of Meltilux scintillant wax was applied to the dried filter mats and the mats were counted in a scintillation counter to determine inhibition of [^3 H]-R5020 binding. Data are expressed as lC50 values, i.e., the concentration of compound that inhibits radioligand binding by 50%.

[5] = system: rabbits; experiment: McGinty assay (progestational activity, test compound alone); assay type: in vivo, rabbit; design: key: McPhail scoring scale for progestational endometrial response
Method: as §2

Row | SMILES | EC50 [1] [nM] | Cell Proliferation, Antagonist Format % inhibition [1] [%] | McPhail Index, Anti-McGinty Assay (Antagonist) ([2]; dose 0.3 micrograms) | McPhail Index, Anti-McGinty Assay (Antagonist) ([2]; dose 3 micrograms) | McPhail Index, Anti-McGinty Assay (Antagonist) ([2]; dose 30 micrograms) | Emax [3] [%] | Relative Binding Affinity, rGR, Relative Affinity (Dexamethasone) [4] | McPhail Index, McGinty Assay (Agonist) ([5]; dose 0.3 micrograms) | McPhail Index, McGinty Assay (Agonist) ([5]; dose 3 micrograms) | McPhail Index, McGinty Assay (Agonist) ([5]; dose 30 micrograms) | agonist/antagonist profile ([2]; in words, McGinty and anti-McGinty tests) | antiprogestational activity in the anti-McGinty assay ([2]; in words)
1 | CC(=O)c1ccc([C@H]2C[C@@]3(C)[C@@H](CC[C@]3(CCCO)[N+](=O)[O-])[C@@H]3CCC4=CC(=O)CCC4=C32)cc1 [I 4-CH3 CO H O H --(CH2)3 OH, 11β-(4-Acetylphenyl)-17α-(3-hydroxypropyl)-17β-nitroestra-4,9-dien-3-one] | 175 | 96 | 2.93 ± 0.12 | 2.43 ± 0.6 | 1.60 ± 0.66 | 41 | 3 | 0 ± 0 | 0 ± 0 | 0 ± 0 | – | –
2 | CC#C[C@]1([N+](=O)[O-])CC[C@H]2[C@@H]3CCC4=CC(=O)CCC4=C3[C@@H](c3ccc(C(C)=O)cc3)C[C@@]21C [I 4-CH3 CO H O H --CC--CH3, 11β-(4-Acetylphenyl)-17β-nitro-17α-(1-propynyl)estra-4,9-dien-3-one] | 3.3 | 90 | 2.173 ± 0.42 | 2.47 ± 0.15 | 0.13 ± 0.12 | 35 | 20 | 0.13 ± 0.12 | 1.33 ± 0.35 | 0.97 ± 0.75 | mixed (agonist/antagonist) profile | –
3 | CC(=O)c1ccc([C@H]2C[C@@]3(C)[C@@H](CC[C@]3(/C=C/CO)[N+](=O)[O-])[C@@H]3CCC4=CC(=O)CCC4=C32)cc1 [I 4-CH3 CO H O H CH=CHCH2 OH, 11β-(4-acetylphenyl)-17α-(E-3-hydroxy-1-propenyl)-17β-nitroestra-4,9-dien-3-one] | 122 | 86 | 1.53 ± 0.68 | 1.76 ± 0.45 | 2.3 ± 0.0 | 52 | 4 | 0 ± 0 | 0 ± 0 | 0 ± 0 | – | –
4 | CN(C)c1ccc([C@H]2C[C@@]3(C)[C@@H](CC[C@]3(CCCO)[N+](=O)[O-])[C@@H]3CCC4=CC(=O)CCC4=C32)cc1 [I 4-Me2 N H O H --(CH2)3 OH, 11β-[4-(N,N-Dimethylamino)phenyl]-17α-(3-hydroxypropyl)-17β-nitroestra-4,9-dien-3-one] | 12 | 89 | 1.83 ± 0.48 | 1.87 ± 0.98 | 0.43 ± 0.31 | 33 | 74 | 0 ± 0 | 0 ± 0 | 0.03 ± 0.057 | – | –
5 | CC1=[N+]([O-])C2(CC1)CCC1C3CCC4=CC(=O)CCC4=C3C(c3ccc(N(C)C)cc3)CC12C (stereo not drawn) [II 4-Me2 N H O H -- CH3, 3',4'-dihydro-11β-(4-(N,N-dimethylamino)phenyl)-5'-methyl-1'-oxo-spiro[estra-4,9-dien-17β,2'(2'H)-pyrrole]-3-one] | – | – | 2.03 ± 0.14 | 1.9 ± 0.85 | 0 ± 0 | – | 2 | 0 ± 0 | 0 ± 0 | 0 ± 0 | – | potent antiprogestin in the anti-McGinty assay
